# Results: publication PMC7915026, “Sulfaguanidine Hybrid with Some New Pyridine-2-One Derivatives: Design, Synthesis, and Antimicrobial Activity against Multidrug-Resistant Bacteria as Dual DNA Gyrase and DHFR Inhibitors” (Antibiotics, 2021)
# Read-outs that look alike come from different tables or passages of the source.
# Tests used:
# B. subtilis ATCC 6633 [1] = test: Inhibition zone, paper disk/agar diffusion; note: test concentration or dose not given here; assay type: cell-based; conditions: B. subtilis; Na = no activity
# Excerpt: (§1) The antimicrobial activity performed at the bacteriology laboratory, Botany and Microbiology Department, Faculty of Science, Al-Azhar University, Cairo, Egypt. The inhibition zone (IZ) of the tested derivatives expressed as the diameter (mm) according to the agar plate diffusion method.
# E. coli ATCC 25922 [2] = test: Inhibition zone, paper disk/agar diffusion; assay type: cell-based; conditions: E. coli; Na = no activity
# Excerpt: as §1
# E. faecalis ATCC 29212 [3] = test: Inhibition zone, paper disk/agar diffusion; note: test concentration or dose not given here; assay type: cell-based; conditions: E. faecalis; Na = no activity
# Excerpt: as §1
# [4] = test system: F. oxysporum (RCMB 008002); test: Inhibition zone, paper disk/agar diffusion; assay type: cell-based; conditions: Na = no activity; note: test concentration or dose not given here
# Excerpt: as §1
# P. aeruginosa ATCC 27853 [5] = test: Inhibition zone, paper disk/agar diffusion; assay type: cell-based; conditions: P. aeruginosa; Na = no activity
# Excerpt: as §1
# S. aureus ATCC 29213 [6] = test: Inhibition zone, paper disk/agar diffusion; note: test concentration or dose not given here; assay type: cell-based; conditions: S. aureus; Na = no activity
# Excerpt: as §1
# B. subtilis ATCC 6633 [7] = test: MIC and MBC determination; assay type: cell-based; conditions: Bacillus subtilis, ATCC6633, B. subtilis
# S. aureus ATCC 29213 [8] = test: MIC and MBC determination; assay type: cell-based; conditions: Staphylococcus aureus, ATCC29213, S. aureus
# E. faecalis ATCC 29212 [9] = test: MIC and MBC determination; assay type: cell-based; conditions: Enterococcus faecalis, ATCC29212, E. faecalis
# E. coli ATCC 25922 [10] = test: MIC and MBC determination; assay type: cell-based; conditions: Escherichia coli, ATCC25922, E. coli
# P. aeruginosa ATCC 27853 [11] = test: MIC and MBC determination; assay type: cell-based; conditions: Pseudomonas aeruginosa, ATCC27853, P. aeruginosa
# [12] = test system: Salmonella typhi (S. typhi ATCC 6539); test: microbe, parasite or virus in culture; assay type: cell-based; conditions: Salmonella enterica, Salmonella typhi
# C. albicans (ATCC 10231) = test: MIC and MFC determination; assay type: cell-based
# [13] = test system: F. oxysporum (RCMB 008002); test: MIC and MFC determination; assay type: cell-based
# E. coli ATCC BAA-196 [14] = test: Inhibition zone against multidrug-resistant bacteria; note: test concentration or dose not given here; assay type: cell-based; conditions: MDRB E. coli ATCC BAA-196
# Excerpt: (§2) Norfloxacin was used as a positive control for the multidrug resistance study.
# as §1
# [15] = test system: P. aeruginosa ATCC BAA-2111; test: as above; assay type: cell-based; conditions: MDRB P. aeruginosa ATCC BAA-2111
# Excerpt: as §2, §1
# S. aureus ATCC 33591 [16] = test: as above; assay type: cell-based; conditions: MDRB S. aureus ATCC 33591
# Excerpt: as §2, §1
# S. aureus ATCC 43300 [17] = test: as above; assay type: cell-based; conditions: MDRB S. aureus ATCC 43300
# Excerpt: as §2, §1
# E. coli ATCC BAA-196 [18] = test: MIC and MBC against multidrug-resistant strains; assay type: cell-based; conditions: E. coli ATCC BAA-196
# Excerpt: as §2
# (§3) The experiment was repeating for three-times.
# [19] = test system: P. aeruginosa ATCC BAA-2111; test: MIC and MBC against multidrug-resistant strains; assay type: cell-based; conditions: P. aeruginosa ATCC BAA-2111
# Excerpt: as §2, §3
# S. aureus ATCC 33591 [20] = test: MIC and MBC against multidrug-resistant strains; assay type: cell-based; conditions: Staphylococcus aureus, ATCC33591, S. aureus ATCC 33591
# Excerpt: as §2, §3
# S. aureus ATCC 43300 [21] = test: MIC and MBC against multidrug-resistant strains; assay type: cell-based; conditions: Staphylococcus aureus, ATCC43300, S. aureus ATCC 43300
# Excerpt: as §2, §3
# S. aureus DNA gyrase = S. aureus DNA gyrase (Staphylococcus aureus, UniProt P0A0K8+P20831); test: In vitro DNA gyrase supercoiling enzymatic assay; assay type: biochemical
# Throughout, for Mean Diameter of Inhibition Zone: test concentration or dose not given here.
# Chain of S. aureus DNA gyrase (P20831 whole entry): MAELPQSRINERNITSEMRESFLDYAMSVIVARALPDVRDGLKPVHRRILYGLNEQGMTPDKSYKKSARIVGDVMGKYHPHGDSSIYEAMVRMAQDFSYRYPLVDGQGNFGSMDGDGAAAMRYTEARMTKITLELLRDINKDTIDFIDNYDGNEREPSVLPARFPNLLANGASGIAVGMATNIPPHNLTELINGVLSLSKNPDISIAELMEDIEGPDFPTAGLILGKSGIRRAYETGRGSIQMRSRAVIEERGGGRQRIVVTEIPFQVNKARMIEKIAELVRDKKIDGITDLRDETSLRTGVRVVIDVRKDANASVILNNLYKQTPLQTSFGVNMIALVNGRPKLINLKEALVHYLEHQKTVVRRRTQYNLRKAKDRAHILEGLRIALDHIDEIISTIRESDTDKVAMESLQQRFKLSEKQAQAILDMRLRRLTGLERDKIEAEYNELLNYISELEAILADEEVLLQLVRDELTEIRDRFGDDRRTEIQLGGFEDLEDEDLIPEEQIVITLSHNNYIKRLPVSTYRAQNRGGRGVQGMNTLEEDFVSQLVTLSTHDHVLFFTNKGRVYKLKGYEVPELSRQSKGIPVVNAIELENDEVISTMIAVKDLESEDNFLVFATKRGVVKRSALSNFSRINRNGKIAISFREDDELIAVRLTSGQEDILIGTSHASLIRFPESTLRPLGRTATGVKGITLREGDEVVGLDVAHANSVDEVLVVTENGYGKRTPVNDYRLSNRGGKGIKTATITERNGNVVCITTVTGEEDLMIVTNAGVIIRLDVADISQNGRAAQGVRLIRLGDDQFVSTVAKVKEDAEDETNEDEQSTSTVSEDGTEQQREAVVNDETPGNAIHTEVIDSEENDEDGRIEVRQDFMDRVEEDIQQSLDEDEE
# Chain of S. aureus DNA gyrase (P0A0K8 whole entry): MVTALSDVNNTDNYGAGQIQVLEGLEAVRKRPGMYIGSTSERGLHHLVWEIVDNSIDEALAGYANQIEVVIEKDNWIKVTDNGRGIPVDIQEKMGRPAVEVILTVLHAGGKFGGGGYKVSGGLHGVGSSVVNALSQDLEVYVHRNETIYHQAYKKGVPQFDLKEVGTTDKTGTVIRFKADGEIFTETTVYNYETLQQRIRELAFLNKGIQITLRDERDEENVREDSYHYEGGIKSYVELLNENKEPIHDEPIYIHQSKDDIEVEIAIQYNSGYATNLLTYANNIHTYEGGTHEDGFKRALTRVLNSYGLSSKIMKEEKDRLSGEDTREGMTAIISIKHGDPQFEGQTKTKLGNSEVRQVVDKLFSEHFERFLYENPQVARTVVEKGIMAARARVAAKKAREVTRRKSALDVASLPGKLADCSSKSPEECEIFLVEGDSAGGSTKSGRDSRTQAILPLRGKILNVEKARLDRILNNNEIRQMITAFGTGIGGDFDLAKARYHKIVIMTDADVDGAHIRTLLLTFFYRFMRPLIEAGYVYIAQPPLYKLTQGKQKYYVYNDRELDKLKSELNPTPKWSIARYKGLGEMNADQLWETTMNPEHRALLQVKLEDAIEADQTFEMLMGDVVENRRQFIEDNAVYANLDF
structure (smiles),measurement,setting,value
"COc1ccc(/C=C(\C#N)C(=O)Nc2ccc(S(=O)(=O)NC(=N)N)cc2)cc1 [Compound 2b, N-(4-(N-Carbamimidoylsulfamoyl)phenyl)-2-cyano-3-(4-methoxyphenyl) acrylamide]",Mean Diameter of the Inhibition Zone,B. subtilis ATCC 6633 [1],25 ± 0.87 mm
same,Mean Diameter of the Inhibition Zone,E. coli ATCC 25922 [2],23 ± 0.2 mm
same,Mean Diameter of the Inhibition Zone,E. faecalis ATCC 29212 [3],24 ± 0.35 mm
same,Mean Diameter of the Inhibition Zone,[4],17 ± 0.50 mm
same,Mean Diameter of the Inhibition Zone,P. aeruginosa ATCC 27853 [5],21 ± 0.55 mm
same,Mean Diameter of the Inhibition Zone,S. aureus ATCC 29213 [6],21 ± 0.3 mm
same,MBC,B. subtilis ATCC 6633 [7]; read-out: MBC,35.2 ± 1.25 µM
same,MIC,B. subtilis ATCC 6633 [7]; read-out: MIC,19.6 ± 0.39 µM
same,MBC,S. aureus ATCC 29213 [8]; read-out: MBC,78.2 ± 0.87 µM
same,MIC,S. aureus ATCC 29213 [8]; read-out: MIC,39.1 ± 1.67 µM
same,MBC,E. faecalis ATCC 29212 [9]; read-out: MBC,46.3 ± 0.74 µM
same,MIC,E. faecalis ATCC 29212 [9]; read-out: MIC,23.1 ± 0.61 µM
same,MBC,E. coli ATCC 25922 [10]; read-out: MBC,219.1 ± 2.14 µM
same,MIC,E. coli ATCC 25922 [10]; read-out: MIC,156 ± 2.65 µM
same,MBC,P. aeruginosa ATCC 27853 [11]; read-out: MBC,133 ± 1.02 µM
same,MIC,P. aeruginosa ATCC 27853 [11]; read-out: MIC,78.2 ± 1.24 µM
same,MBC,[12]; read-out: MBC,70.4 ± 0.85 µM
same,MIC,[12]; read-out: MIC,39.1 ± 0.36 µM
same,MFC/MIC,C. albicans (ATCC 10231),<2
same,MFC,"C. albicans (ATCC 10231); Candida albicans, ATCC10231, read-out: MFC",133 ± 1.65 µM
same,MIC,"C. albicans (ATCC 10231); Candida albicans, ATCC10231, read-out: MIC",78.2 ± 0.95 µM
same,MFC/MIC,[13],<2
same,MFC,"[13]; Fusarium oxysporum, RCMB008002, read-out: MFC",222.3 ± 1.65 µM
same,MIC,"[13]; Fusarium oxysporum, RCMB008002, read-out: MIC",139 ± 1.53 µM
same,Mean Diameter of Inhibition Zone,E. coli ATCC BAA-196 [14],22 ± 0.85 mm
same,Mean Diameter of Inhibition Zone,[15],19 ± 0.16 mm
same,Mean Diameter of Inhibition Zone,S. aureus ATCC 33591 [16],21 ± 0.11 mm
same,Mean Diameter of Inhibition Zone,S. aureus ATCC 43300 [17],20 ± 0.34 mm
same,MBC,E. coli ATCC BAA-196 [18],9.38 ± 0.74 µM
same,MIC,E. coli ATCC BAA-196 [18],4.69 ± 0.45 µM
same,MBC,"E. coli ATCC BAA-196 [18]; Escherichia coli, ATCCBAA196, read-out: MBC",9.38 µM
same,MIC,"E. coli ATCC BAA-196 [18]; Escherichia coli, ATCCBAA196, read-out: MIC",4.69 µM
same,MBC,[19],18.77 ± 0.87 µM
same,MIC,[19],9.38 ± 0.47 µM
same,MBC,"[19]; Pseudomonas aeruginosa, ATCCBAA2111, read-out: MBC",18.8 µM
same,MIC,"[19]; Pseudomonas aeruginosa, ATCCBAA2111, read-out: MIC",9.38 µM
same,MBC,S. aureus ATCC 33591 [20]; read-out: MBC,18.8 ± 0.21 µM
same,MIC,S. aureus ATCC 33591 [20]; read-out: MIC,9.38 ± 0.35 µM
same,MBC,S. aureus ATCC 43300 [21]; read-out: MBC,39.1 ± 0.54 µM
same,MIC,S. aureus ATCC 43300 [21]; read-out: MIC,19.6 ± 0.52 µM
same,IC50,S. aureus DNA gyrase,29.1 ± 1.93 µM
